“Also recorded” adds a separate entry of the source.
Assays:
Assay type in all cases: cell-based
[1] = system: ID4 mRNA expression in SW480; test: ID4 mRNA expression by quantitative real-time reverse transcription-PCR after 5Aza treatment, SW480
Method: (§1) Cell Lines. Three CRC cell lines SW480, DLD1, and LOVO (American Type Culture Collection, Manassas, Va.) were analyzed in this study. Genomic DNA was extracted from cells as described previously (33). Total RNA was extracted with TRI Reagent (Molecular Research Center, Inc., Cincinnati, Ohio) according to the manufacturer's protocol. For ID4 expression restoration study, SW480 and DLD1 were treated with DNA demethylation agent 5-aza-cytidine (5Aza), a known inhibitor of methylation, as described previously (33-35). Cells were seeded at 7×10^5/T-25 flask on day zero; the culture medium was changed on day two, and cells were then treated with 5Aza at final concentrations of 5 ug/mL for 48 hours (SW480 and DLD1) and 10 ug/mL for 72 hours (DLD1). After treatment, cells were harvested for DNA and RNA as described above.
(§2) Analysis of mRNA Expression Level. Reverse-transcriptase reactions were done on 1.0 ug of extracted total RNA with Moloney murine leukemia virus reverse-transcriptase (Promega, Madison, Wis.) with oligodeoxythymidylic acid primers, as described previously (39). Quantitative real-time reverse transcription-PCR assay was done on the iCycler iQ Real-Time thermocycler detection system (Bio-Rad Laboratories, Hercules, Calif.; 39). For each PCR, the reaction mixture consisted of cDNA template synthesized by reverse-transcription from 250 ng of total RNA, 0.2 mmol/L of forward primer (5′-CGCTCACTGCGCTCAACAC-3′), 0.2 mmol/L of reverse primer (5′-TCAGGCGGCCGCACACCT-3′), and 0.6 mmol/L of fluorescence resonance energy transfer probe (5′-FAM-[…]-BHQ-3′). […] Absolute copy numbers were determined by a standard curve with serial dilutions (10^8 to 10^1 copies) of DNA containing ID4 or GAPDH cDNA sequence. […] The expression level of the housekeeping gene GAPDH was measured as an internal reference with a standard curve to determine the integrity of template RNA for all of the specimens. The ratio of ID4 and GAPDH mRNA level was calculated as follows: (absolute copy number of ID4)/(absolute copy number of GAPDH) as described previously (39).

[2] = system: ID4 mRNA expression in DLD1; test: ID4 mRNA expression by quantitative real-time reverse transcription-PCR after 5Aza treatment, DLD1
Method: as §1
Analysis of mRNA Expression Level. Reverse-transcriptase reactions were done on 1.0 ug of extracted total RNA with Moloney murine leukemia virus reverse-transcriptase (Promega, Madison, Wis.) with oligodeoxythymidylic acid primers, as described previously (39). Quantitative real-time reverse transcription-PCR assay was done on the iCycler iQ Real-Time thermocycler detection system (Bio-Rad Laboratories, Hercules, Calif.; 39). For each PCR, the reaction mixture consisted of cDNA template synthesized by reverse-transcription from 250 ng of total RNA, 0.2 mmol/L of forward primer (5′-CGCTCACTGCGCTCAACAC-3′), 0.2 mmol/L of reverse primer (5′-TCAGGCGGCCGCACACCT-3′), and 0.6 mmol/L of fluorescence resonance energy transfer probe (5′-FAM-[…]-BHQ-3′). PCR amplification was done in a 20-ul reaction volume for 45 cycles of 30 seconds at 94° C., 30 seconds at 58° C., and 30 seconds at 72° C. with 3 mmol/L of Mg^2+. Absolute copy numbers were determined by a standard curve with serial dilutions (10^8 to 10^1 copies) of DNA containing ID4 or GAPDH cDNA sequence. Analysis without templates was done as a negative control in each study. PCR products were electrophoresed on 2% agarose gels to confirm correct product size and absence of nonspecific bands. The expression level of the housekeeping gene GAPDH was measured as an internal reference with a standard curve to determine the integrity of template RNA for all of the specimens. The ratio of ID4 and GAPDH mRNA level was calculated as follows: (absolute copy number of ID4)/(absolute copy number of GAPDH) as described previously (39).

[3] = system: ID4 promoter region in SW480; test: Methylation-specific PCR of ID4 promoter region after 5Aza treatment, SW480; settings: SW480, 5 ug/mL of 5Aza for 48 hours; untreated only methylated peaks
Method: (§3) Cell Lines. Three CRC cell lines SW480, DLD1, and LOVO (American Type Culture Collection, Manassas, Va.) were analyzed in this study. Genomic DNA was extracted from cells as described previously (33). Total RNA was extracted with TRI Reagent (Molecular Research Center, Inc., Cincinnati, Ohio) according to the manufacturer's protocol. […] Cells were seeded at 7×10^5/T-25 flask on day zero; the culture medium was changed on day two, and cells were then treated with 5Aza at final concentrations of 5 ug/mL for 48 hours (SW480 and DLD1) and 10 ug/mL for 72 hours (DLD1). After treatment, cells were harvested for DNA and RNA as described above. Sodium bisulfite modification was applied on extracted genomic DNA of tissue specimens or cell lines for methylation-specific PCR or bisulfite sequencing as described previously (33). Detection of Hypermethylation. Methylation status of ID4 promoter region was analyzed by methylation-specific PCR and bisulfite sequencing. […] PCR products were detected and analyzed by CEQ 8000XL capillary array electrophoresis system (Beckman Coulter, Inc., Fullerton, Calif.) with CEQ 8000 software version 6.0 (Beckman Coulter) as described previously (35). Methylation status was determined by the ratio of the signal intensities of methylated and unmethylated PCR products; samples with methylated to unmethylated ratio larger than 0.2 were determined as methylated.

[4] = system: ID4 promoter region in DLD1; test: Methylation-specific PCR of ID4 promoter region after 5Aza treatment, DLD1; settings: DLD1, 10 ug/mL of 5Aza for 72 hours; untreated only methylated peaks
Method: as §3

[5] = system: ID4 promoter region in SW480; test: Bisulfite sequencing of ID4 promoter region after 5Aza treatment, SW480; settings: SW480, 5 ug/mL of 5Aza for 48 hours; nontreated cells all CpG sites methylated
Method: as §1
(§4) Sodium bisulfite modification was applied on extracted genomic DNA of tissue specimens or cell lines for methylation-specific PCR or bisulfite sequencing as described previously (33).
(§5) For bisulfite sequencing, the primer set was as follows: forward, 5′-[…]-3′; and reverse, 5′-[…]-3′, with Y═C or T, R=G or A, as described previously (32). […] Sequences were read by CEQ 8000XL capillary array electrophoresis system (Beckman Coulter) with CEQ 8000 software version 6.0 (Beckman Coulter) as described previously (37).

[6] = system: ID4 promoter region in DLD1; test: Bisulfite sequencing of ID4 promoter region after 5Aza treatment, DLD1; settings: DLD1, 10 ug/mL of 5Aza for 72 hours
Method: as §1, §4, §5

CRC cell lines = test: mRNA expression in CRC cell lines after 5Aza treatment (summary statements)
Method: Cell Lines. Three CRC cell lines SW480, DLD1, and LOVO (American Type Culture Collection, Manassas, Va.) were analyzed in this study. Genomic DNA was extracted from cells as described previously (33). Total RNA was extracted with TRI Reagent (Molecular Research Center, Inc., Cincinnati, Ohio) according to the manufacturer's protocol. For ID4 expression restoration study, SW480 and DLD1 were treated with DNA demethylation agent 5-aza-cytidine (5Aza), a known inhibitor of methylation, as described previously (33-35). […]
as §2, with “Reverse-transcriptase reactions were done on 1.0 ug of extracted total RNA with Moloney murine leukemia virus reverse-transcriptase (Promega, Madison, Wis.) with oligodeoxythymidylic acid primers, as described previously (39).” left out, “The ratio of ID4 and GAPDH mRNA level was calculated as follows: (absolute copy number of ID4)/(absolute copy number of GAPDH) as described previously (39).” left out

## Nc1ncn([C@@H]2O[C@H](CO)[C@@H](O)[C@H]2O)c(=O)n1 [5Aza, 5-aza-cytidine]
[1]; SW480, 5 ug/mL of 5Aza for 48 hours, untreated undetectable (0)
  ID4 copy number: 4.7×10^2 copies/250 ng of total RNA
[1]; SW480, 5Aza-treated, untreated 0
  ID4 expression ratio (ID4 copy number)/(GAPDH copy number): 2.8 × 10^−3
[1]; SW480, 5Aza-treated, untreated 4.6 × 10^6
  GAPDH copy number: 1.7 × 10^5 copies/250 ng of total RNA
[2]; DLD1, 5 ug/mL of 5Aza for 48 hours
  ID4 expression restoration: did not overtly restore ID4 expression
[2]; DLD1, 10 ug/mL of 5Aza for 72 hours, untreated undetectable (0)
  ID4 copy number: 4.8×10^2 copies/250 ng of total RNA
[2]; DLD1, 5Aza-treated, untreated 0
  ID4 expression ratio (ID4 copy number)/(GAPDH copy number): 4.8 × 10^−3
[2]; DLD1, 5Aza-treated, untreated 5.6 × 10^5
  GAPDH copy number: 9.9 × 10^4 copies/250 ng of total RNA
[3]
  Methylation-specific PCR result of ID4 promoter: Unmethylated peaks appeared; also recorded: showed an unmethylation-specific peak
[4]
  Methylation-specific PCR result of ID4 promoter: Unmethylated peaks appeared; also recorded: produced an unmethylation-specific peak
[5]
  Methylation status of CpG sites by bisulfite sequencing: most CpG sites were changed to unmethylated form
[6]
  Methylation status of CpG sites by bisulfite sequencing: CpG sites partially lost their methylation
CRC cell lines; 5-aza-cytidine treatment
  ID4 mRNA expression in hypermethylated CRC cell lines: could be restored
CRC cell lines; after 5Aza treatment, CRC cell lines
  GAPDH mRNA: decreased
